Test results as given in patent publication US20240336574A1 (LATIGO BIOTHERAPEUTICS, INC., priority 2021, published 2024).
pIC50: −log10 of the molar value. Read-outs that look alike come from different tables or passages of the source.

Biological target: T1, recombinant human NaV1.8 stably transfected HEK cells (Homo sapiens, UniProt Q9Y5Y9)
T1 construct: expressed in transfected cells; host or cells: HEK cells, stably transfected
Experiment: Compound profiling on NaV1.8, human NaV1.8 cell line, SyncroPatch384PE automated patch clamp assay (Example 102, first set of compounds, Table 16)
Type: cell-based
Details: human NaV1.8 HEK cells, Table 16 (first set of compounds)
Outline: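 IC50s come from two read-outs: resting-state block (P1, 10 mV step from −120 mV) and inactivated-state block (P2, after 10 s at −40 mV), scaled between DMSO and 250 μM tetracaine. Compounds (20–0.001 μM final, 1:3 steps) were applied for 5 min, 15 s sweeps. Cells kept at 30 °C the day before.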

[1] = inactivated state block (P2 measurement), read-out: P2IC50
[2] = resting state block (P1 measurement), read-out: P1IC50

T1 sequence (Q9Y5Y9 whole entry): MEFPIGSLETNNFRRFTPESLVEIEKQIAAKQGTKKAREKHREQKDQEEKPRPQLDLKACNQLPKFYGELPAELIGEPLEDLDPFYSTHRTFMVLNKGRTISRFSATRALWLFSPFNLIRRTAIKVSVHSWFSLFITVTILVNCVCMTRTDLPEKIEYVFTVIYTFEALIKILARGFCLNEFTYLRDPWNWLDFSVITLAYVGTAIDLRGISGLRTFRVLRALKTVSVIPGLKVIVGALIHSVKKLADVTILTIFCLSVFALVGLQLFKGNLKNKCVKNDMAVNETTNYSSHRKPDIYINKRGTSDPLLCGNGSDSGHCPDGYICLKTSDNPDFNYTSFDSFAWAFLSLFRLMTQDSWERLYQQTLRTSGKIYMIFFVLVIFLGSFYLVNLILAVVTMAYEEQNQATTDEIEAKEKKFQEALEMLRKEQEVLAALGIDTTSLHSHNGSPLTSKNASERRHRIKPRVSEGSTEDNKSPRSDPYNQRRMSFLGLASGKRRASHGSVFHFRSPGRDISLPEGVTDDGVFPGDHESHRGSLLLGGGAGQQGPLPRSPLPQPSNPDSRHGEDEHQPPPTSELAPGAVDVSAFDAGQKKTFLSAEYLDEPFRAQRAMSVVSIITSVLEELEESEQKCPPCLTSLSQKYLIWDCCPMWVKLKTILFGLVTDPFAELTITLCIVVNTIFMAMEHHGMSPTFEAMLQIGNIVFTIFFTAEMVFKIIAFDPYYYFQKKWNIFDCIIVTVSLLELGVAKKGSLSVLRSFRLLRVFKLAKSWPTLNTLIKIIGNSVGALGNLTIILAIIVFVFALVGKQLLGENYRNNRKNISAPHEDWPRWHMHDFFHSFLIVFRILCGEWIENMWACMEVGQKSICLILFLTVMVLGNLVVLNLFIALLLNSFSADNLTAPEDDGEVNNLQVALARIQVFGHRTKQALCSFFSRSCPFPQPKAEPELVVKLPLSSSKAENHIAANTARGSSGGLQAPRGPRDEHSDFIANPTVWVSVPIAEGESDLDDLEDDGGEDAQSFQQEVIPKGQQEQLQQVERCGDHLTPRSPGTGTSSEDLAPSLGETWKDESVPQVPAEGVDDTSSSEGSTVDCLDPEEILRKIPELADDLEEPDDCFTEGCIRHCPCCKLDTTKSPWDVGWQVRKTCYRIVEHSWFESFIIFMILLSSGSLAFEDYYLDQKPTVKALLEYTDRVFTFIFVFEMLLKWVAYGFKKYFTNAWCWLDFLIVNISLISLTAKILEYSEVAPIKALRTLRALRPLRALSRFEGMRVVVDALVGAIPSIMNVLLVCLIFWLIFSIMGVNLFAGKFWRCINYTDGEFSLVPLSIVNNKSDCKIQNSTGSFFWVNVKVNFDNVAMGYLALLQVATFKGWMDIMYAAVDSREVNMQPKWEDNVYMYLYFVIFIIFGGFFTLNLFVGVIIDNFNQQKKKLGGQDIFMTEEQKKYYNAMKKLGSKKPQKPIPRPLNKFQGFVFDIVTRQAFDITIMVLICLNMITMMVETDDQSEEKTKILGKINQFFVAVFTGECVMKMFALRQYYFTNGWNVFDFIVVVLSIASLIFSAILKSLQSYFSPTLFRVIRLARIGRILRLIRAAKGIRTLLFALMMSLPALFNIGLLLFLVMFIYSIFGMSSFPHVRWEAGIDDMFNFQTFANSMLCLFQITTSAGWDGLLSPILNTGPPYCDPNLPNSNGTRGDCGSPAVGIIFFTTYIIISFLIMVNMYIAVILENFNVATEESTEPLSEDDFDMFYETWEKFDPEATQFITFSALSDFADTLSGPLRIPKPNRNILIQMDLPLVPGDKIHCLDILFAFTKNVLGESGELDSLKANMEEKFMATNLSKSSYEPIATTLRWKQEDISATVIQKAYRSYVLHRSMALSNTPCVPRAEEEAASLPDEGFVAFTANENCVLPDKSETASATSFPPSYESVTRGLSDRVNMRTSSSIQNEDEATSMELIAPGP

SMILES | pIC50 [1] | pIC50 [2]
CSc1cccc(NC(=O)c2c(Oc3ccc(C#N)cc3C)nnc(C(F)(F)F)c2C)c1 [Compound 14, 3-(4-Cyano-2-methylphenoxy)-5-methyl-N-[3-(methylsulfanyl)phenyl]-6-(trifluoromethyl)pyridazine-4-carboxamide] | 6.30 to 6.70 | 6.30 to 6.70
COc1cc(C#N)ccc1Oc1nnc(C(F)(F)F)c(C)c1C(=O)Nc1cccc(C(=O)N2CC(C#N)C2)c1 [Compound 1442, N-[3-(3-cyanoazetidine-1-carbonyl)phenyl]-3-(4-cyano-2-methoxy-phenoxy)-5-methyl-6-(trifluoromethyl)pyridazine-4-carboxamide] | 6.30 to 6.70 | 6.30 to 6.70
COc1cc(C#N)ccc1Oc1nnc(-c2ccccc2F)c(C)c1C(=O)Nc1cccc([S@](C)(=N)=O)c1 [Compound 1537, 3-(4-cyano-2-methoxyphenoxy)-6-(2-fluorophenyl)-N-{3-[(R)-imino(methyl)oxo-λ^6-sulfanyl]phenyl}-5-methylpyridazine-4-carboxamide] | 7.40 to 7.70 | 7.40 to 7.70
Cc1cc(C#N)ccc1Oc1nnc(C(F)(F)F)c(C)c1C(=O)Nc1cccc([S@@](C)(=N)=O)c1 [Compound 1525, 3-(4-cyano-2-methylphenoxy)-N-{3-[(S)-imino(methyl)oxo-λ^6-sulfanyl]phenyl}-5-methyl-6-(trifluoromethyl)pyridazine-4-carboxamide] | ≥ 7.70 | ≥ 7.70
COc1cc(C#N)ccc1Oc1nnc(-c2cnc(C(F)(F)F)s2)c(C)c1C(=O)Nc1cccc(S(C)(=N)=O)c1 (stereo not shown) [Compound 1459, 3-(4-cyano-2-methoxy-phenoxy)-5-methyl-N-[3-(methylsulfonimidoyl)phenyl]-6-[2-(trifluoromethyl)thiazol-5-yl]pyridazine-4-carboxamide] | ≥ 7.70 | ≥ 7.70
Cc1ccc(Oc2nnc(C(F)(F)F)c(C)c2C(=O)Nc2cccc(S(C)(=N)=O)c2)c(C)n1 (single isomer, unassigned) [Compound 1485, 3-[(2,6-dimethylpyridin-3-yl)oxy]-N-{3-[imino(methyl)oxo-λ^6-sulfanyl]phenyl}-5-methyl-6-(trifluoromethyl)pyridazine-4-carboxamide] |  | 6.30 to 6.70
COc1cc(Cl)ccc1Oc1nnc(C(F)(F)F)c(C)c1C(=O)Nc1cccc(S(C)(=N)=O)c1 (single isomer, unassigned) [Compound 1481, 3-(4-chloro-2-methoxyphenoxy)-5-methyl-N-(3-(S-methylsulfonimidoyl)phenyl)-6-(trifluoromethyl)pyridazine-4-carboxamide] | ≥ 7.70 | ≥ 7.70
COc1cc(Cl)ccc1Oc1nnc(C(F)(F)F)c(C)c1C(=O)Nc1cccc(S(C)(=N)=O)c1 (single isomer, unassigned) [Compound 1482, 3-(4-chloro-2-methoxyphenoxy)-5-methyl-N-(3-(S-methylsulfonimidoyl)phenyl)-6-(trifluoromethyl)pyridazine-4-carboxamide] |  | ≥ 7.70
COc1cc(C#N)ccc1Oc1nnc(-c2ccccn2)c(C)c1C(=O)Nc1cccc(S(C)(=N)=O)c1 (stereo not shown) [Compound 1458, 3-(4-cyano-2-methoxyphenoxy)-5-methyl-N-(3-(S-methylsulfonimidoyl)phenyl)-6-(pyridin-2-yl)pyridazine-4-carboxamide] | 6.30 to 6.70 | 6.30 to 6.70
Cc1c(C(F)(F)F)nnc(Oc2ccc(OC(C)C)c(F)c2F)c1C(=O)Nc1cccc(C(N)=O)c1 [Compound 1409] | ≥ 7.70 | ≥ 7.70
Cc1nc(Br)ccc1Oc1nnc(C(F)(F)F)c(C)c1C(=O)Nc1cccc(S(C)(=O)=O)c1 [Compound 1469, 3-[(6-bromo-2-methylpyridin-3-yl)oxy]-N-(3-methanesulfonylphenyl)-5-methyl-6-(trifluoromethyl)pyridazine-4-carboxamide] | ≥ 7.70 | ≥ 7.70
Cc1cc(Br)ccc1Oc1nnc(C(F)(F)F)c(C)c1C(=O)Nc1ccc(C(N)=O)cc1 [Compound 1402] | 7.40 to 7.70 | 7.40 to 7.70
COc1c(Oc2nnc(C(F)(F)F)c(C)c2C(=O)Nc2cccc(S(C)(=N)=O)c2)ccc(F)c1F (stereo not shown) [Compound 23] | 7.40 to 7.70 | ≥ 7.70
Cc1c(C(F)(F)F)nnc(Oc2ccc(OC3CCC3)c(F)c2F)c1C(=O)Nc1cccc(S(C)(=N)=O)c1 (single isomer, unassigned) [Compound 1493, 3-(4-cyclobutoxy-2,3-difluorophenoxy)-N-{3-[imino(methyl)oxo-λ^6-sulfanyl]phenyl}-5-methyl-6-(trifluoromethyl)pyridazine-4-carboxamide] | ≥ 7.70 | ≥ 7.70
Cc1c(Oc2nnc(C(F)(F)F)c(C)c2C(=O)Nc2cccc(S(C)(=N)=O)c2)ccc(Cl)c1F (stereo not shown) [Compound 1486, 3-(4-chloro-3-fluoro-2-methyl-phenoxy)-5-methyl-N-[3-(methylsulfonimidoyl)phenyl]-6-(trifluoromethyl)pyridazine-4-carboxamide] | ≥ 7.70 | ≥ 7.70
COc1cc(C#N)ccc1Oc1nnc(C(F)(F)F)c(C)c1C(=O)Nc1cccc(S(C)(=N)=O)c1 (stereo not shown) [Compound 25] | ≥ 7.70 | ≥ 7.70
COc1nc(C2CC2)ccc1Oc1nnc(C(F)(F)F)c(C)c1C(=O)Nc1cccc(S(C)(=N)=O)c1 (stereo not shown) [Compound 1550, 3-[(6-cyclopropyl-2-methoxy-3-pyridyl)oxy]-5-methyl-N-[3-(methylsulfonimidoyl)phenyl]-6-(trifluoromethyl)pyridazine-4-carboxamide] | ≥ 7.70 | ≥ 7.70
Cc1nc(OC2CCC2)ccc1Oc1ncc(C(F)(F)F)cc1C(=O)Nc1ccc(C(N)=O)cc1 [Compound 1566, N-(4-carbamoylphenyl)-2-[[6-(cyclobutoxy)-2-methyl-3-pyridyl]oxy]-5-(trifluoromethyl)pyridine-3-carboxamide] | 6.30 to 6.70 | 6.30 to 6.70
COc1ccc(-c2nnc(Oc3ccc(C#N)cc3OC)c(C(=O)Nc3cccc([S@@](C)(=N)=O)c3)c2C)cc1 [Compound 1536, 3-(4-cyano-2-methoxyphenoxy)-N-{3-[(S)-imino(methyl)oxo-λ^6-sulfanyl]phenyl}-6-(4-methoxyphenyl)-5-methylpyridazine-4-carboxamide] | 6.70 to 7.40 | 6.70 to 7.40
Cc1c(C(F)(F)F)nnc(Oc2c(F)cc(OC(F)(F)F)cc2F)c1C(=O)Nc1cccc(S(C)(=O)=O)c1 [Compound 1423] | 6.30 to 6.70 | 6.30 to 6.70

Results, then the molecule that gave them:

pIC50 [1] | pIC50 [2] | SMILES
≥ 7.70 | ≥ 7.70 | Cc1cc(OC(F)(F)F)ccc1Oc1ncc(C(F)(F)F)cc1C(=O)Nc1cccc(S(C)(=O)=O)c1 [Compound 1573, N-(3-methylsulfonylpheny1)-2-[2-methyl-4-(trifluoromethoxy)phenoxy]-5-(trifluoromethyl)pyridine-3-carboxamide]
6.70 to 7.40 | 6.70 to 7.40 | Cc1nc(OC2CCC2)ccc1Oc1ncc(C(F)(F)F)cc1C(=O)Nc1cccc(S(C)(=N)=O)c1 (stereo not shown) [Compound 1669]
6.30 to 6.70 | 6.30 to 6.70 | CS(=N)(=O)c1cccc(NC(=O)c2cc(C(F)(F)F)cnc2Oc2ccc(C(F)F)nc2)c1 (stereo not shown) [Compound 1674]
6.30 to 6.70 | 6.30 to 6.70 | CS(=O)(=O)c1cccc(NC(=O)c2cc(C(F)(F)F)cnc2Oc2cccc(OC(F)(F)F)c2)c1 [Compound 1657]
6.30 to 6.70 | 6.30 to 6.70 | COc1cc(C#N)cc(Oc2ncc(C(F)(F)F)cc2C(=O)Nc2cccc(S(C)(=N)=O)c2)c1 (stereo not shown) [Compound 1592]
7.40 to 7.70 | 7.40 to 7.70 | CC(C)Oc1ccc(Oc2ncc(C(F)(F)F)cc2C(=O)Nc2ccc(C(N)=O)cc2)c(F)c1F [Compound 1711]
6.30 to 6.70 | 6.30 to 6.70 | COc1cc(F)c(Oc2ncc(C(F)(F)F)cc2C(=O)Nc2cccc(S(C)(=N)=O)c2)cc1F (stereo not shown) [Compound 1637]
6.30 to 6.70 | 6.30 to 6.70 | N#CC1CC(Oc2ncc(C(F)(F)F)cc2C(=O)Nc2cccc(C(N)=O)c2)C1 (mixture of isomers) [Compound 1668]
6.30 to 6.70 | 6.30 to 6.70 | Cc1nn(C)cc1Oc1ncc(C(F)(F)F)cc1C(=O)Nc1cccc(S(C)(=N)=O)c1 (stereo not shown) [Compound 1590]
≥ 7.70 | ≥ 7.70 | COc1c(Oc2nnc(C(F)(F)F)c(C)c2C(=O)Nc2ccn3nnnc3c2)ccc(F)c1F [Compound 1551, 3-(3,4-difluoro-2-methoxy-phenoxy)-5-methyl-N-(tetrazolo[1,5-a]pyridin-7-yl)-6-(trifluoromethyl)pyridazine-4-carboxamide]
6.30 to 6.70 | 6.30 to 6.70 | CS(=O)(=O)c1cccc(NC(=O)c2cc(C(F)(F)F)cnc2OC2CCOC2)c1 (stereo not shown) [Compound 1662]
6.70 to 7.40 | 6.70 to 7.40 | COc1c(Oc2ncc(C#N)cc2C(=O)Nc2cccc(C(N)=O)c2)ccc(F)c1F [Compound 1724, N-(3-carbamoylphenyl)-5-cyano-2-(3,4-difluoro-2-methoxy-phenoxy)pyridine-3-carboxamide]
≥ 7.70 | ≥ 7.70 | COc1nc(C#N)ccc1Oc1ncc(C(F)(F)F)cc1C(=O)Nc1cccc([S@](C)(=N)=O)c1 [Compound 1655]
6.30 to 6.70 | 6.30 to 6.70 | Cc1cc(F)ccc1Oc1nnc(C(F)(F)F)c(N2CCCCC2)c1C(=O)Nc1cccc([S@@](C)(=N)=O)c1 [Compound 1732, (S)-3-(4-fluoro-2-methylphenoxy)-N-(3-(S-methylsulfonimidoyl)phenyl)-5-(piperidin-1-yl)-6-(trifluoromethyl)pyridazine-4-carboxamide]
≥ 7.70 | ≥ 7.70 | CS(=N)(=O)c1cccc(NC(=O)c2cc(C(F)(F)F)cnc2Oc2cccnc2OC(F)(F)F)c1 (stereo not shown) [Compound 1636]
6.30 to 6.70 | 6.30 to 6.70 | COc1ncc(Oc2ncc(C(F)(F)F)cc2C(=O)Nc2cccc(S(C)(=N)=O)c2)cc1F (stereo not shown) [Compound 1699]
